This assay concerns 1b_Huh-Luc/Neo-ET cell line (bicistronic genotype 1b replicon in Huh 7 cells). The assay is described as follows: HCV 1b replicon assay, luciferase readout. Type of assay: cell-based, HCV genotype 1b. The protocol: Biological activity of the compounds of the invention was determined using an HCV replicon assay. The 1b_Huh-Luc/Neo-ET cell line persistently expressing a bicistronic genotype 1b replicon in Huh 7 cells was obtained from ReBLikon GMBH. This cell line was used to test compound inhibition using luciferase enzyme activity readout as a measurement of compound inhibition of replicon levels.
On Day 1 (the day after plating), each compound is added in triplicate to the cells. Plates incubated for 72 […] prior to running the luciferase assay. Enzyme activity was measured using a Bright-Glo Kit (cat. number E2620) manufactured by Promega Corporation. The following equation was used to generate a percent control value for each compound.
%Control=(Average Compound Value/Average Control)*100
The EC50 value was determined using GraphPad Prism and the following equation:
Y=Bottom+(Top−Bottom)/(1+10̂((LogIC50−X)*HillSlope))
EC50 values of compounds are repeated several times in the replicon assay.

The mark [1] stands for this setting: Hepatitis C virus, Huh-7, 1b_Huh-Luc/Neo-ET cell line, read-out: EC50, half-maximal inhibition of HCV 1b replication.
[2] abbreviates: Hepatitis C virus, Huh-7, class symbol, HCV genotype 1b replicon, read-out: Inhibition of HCV genotype 1b replicon.
Setting [3] is: class symbol, HCV genotype 1b replicon, read-out: Inhibition of HCV genotype 1b replicon.

Like-named read-outs stand apart in the source and are kept apart here.

As to `CNC(=O)c1c(-c2ccc(Oc3ccc(F)cc3)cc2)oc2cc3c(cc12)C(C)OC(C)(C)CN3S(C)(=O)=O` (stereo not shown) [Compound B167], the EC50 is 10 to 100 nM under setting [1] and 10 to 100 nM under setting [2]. For the molecule `CNC(=O)c1c(-c2ccc(Oc3ccc(F)cc3)cc2)oc2cc3c(cc12)C(C)NC(=O)CN3S(C)(=O)=O` (stereo not shown) [Compound B175], the EC50 under setting [1] was 10 to 100 nM and the EC50 under setting [2] fell in the range of 10 to 100 nM. In the case of `CNC(=O)c1c(-c2ccc(F)cc2)oc2cc3c(cc12)[C@@H](C)NC(=O)CN3S(C)(=O)=O` (single isomer, unassigned) [Compound B209], under setting [2], the EC50 lay in the range of 100 to 1000 nM.

Regarding `CNC(=O)c1c(-c2ccc(F)cc2)oc2cc3c(cc12)[C@@H](C)O[C@@H](CS(C)(=O)=O)CN3S(C)(=O)=O` [Compound B213], the EC50 under setting [2] was above 1000 nM. `CNC(=O)c1c(-c2ccc(F)cc2)oc2cc3c(cc12)C(C)OC(C)CN3S(C)(=O)=O` (stereo not shown) [Compound B190]: the EC50 reads like this: under setting [1], at most 10 nM; under setting [2], below 10 nM. The corresponding values for `[2H]C([2H])([2H])NC(=O)c1c(-c2ccc(F)cc2)oc2cc3c(cc12)C1CC1CCN3S(C)(=O)=O` (stereo not shown) [Compound B128] are at most 10 nM and below 10 nM.

As for `CN(O)C(=O)c1c(-c2ccc(F)cc2)oc2cc3c(cc12)CCCCN3S(C)(=O)=O` [Compound B59], the EC50 under setting [2] was in the range of 100 to 1000 nM. Take `CNC(=O)c1c(-c2ccc(F)cc2)oc2cc3c(cc12)C(C)N(C)C(=O)CN3S(C)(=O)=O` (stereo not shown) [Compound B172]: the EC50 runs as follows: under setting [1], 10 to 100 nM; under setting [2], 10 to 100 nM. As for `CNC(=O)c1c(-c2ccc(F)cc2)oc2cc3c(cc12)C(C)OC(CN(C)C)CN3S(C)(=O)=O` (stereo not shown) [Compound B222], the EC50 lay within 10 to 100 nM under setting [1] and 10 to 100 nM under setting [2].

`CNC(=O)c1c(-c2ccc(Oc3ccc(F)cc3)cc2)oc2cc3c(cc12)C(C)OC(CCS(C)(=O)=O)CN3S(C)(=O)=O` (stereo not shown) [Compound B236]: the EC50 is at most 10 nM under setting [1] and below 10 nM under setting [2]. With `CNC(=O)c1c(-c2ccc(F)cc2)oc2cc3c(cc12)C(C)n1nncc1CN3S(C)(=O)=O` (stereo not shown) [Compound B138], the EC50 is, setting by setting: under setting [1], at most 10 nM; under setting [2], below 10 nM. As for `CNC(=O)c1c(-c2ccc(Oc3ccccc3)cc2)nn2cc3c(cc12)C(C)CCCN3S(C)(=O)=O` (stereo not shown) [Compound B90], the EC50 under setting [2] fell in the range of 100 to 1000 nM.

Consider `CNC(=O)c1c(-c2ccc(Oc3ccc(F)cc3)cc2)oc2cc3c(cc12)[C@@H](C)N(C)C(=O)CN3S(C)(=O)=O` (single isomer, unassigned) [Compound B182], for which the EC50 under setting [2] was 100 to 1000 nM. As to `[2H]C([2H])([2H])NC(=O)c1c(-c2ccc(F)cc2)nn2cc3c(cc12)CCCCCN3S(C)(=O)=O` [Compound B126], the EC50 under setting [2] lay within 10 to 100 nM. Same read-out and setting: then `CNC(=O)c1c(-c2ccc(F)cc2)oc2cc3c(cc12)[C@@H](C)OC1(CC1)CN3S(C)(=O)=O` (single isomer, unassigned) [Compound B194], with 100 to 1000 nM. As to `CNC(=O)c1c(-c2ccc(F)cc2)oc2cc3c(cc12)C(C)N(c1ccc(F)cc1)CCN3S(C)(=O)=O` (stereo not shown) [Compound B165], the EC50 under setting [1] lay in the range of 10 to 100 nM and the EC50 under setting [2] was in the range of 10 to 100 nM. As to `CNC(=O)c1c(-c2ccc(F)cc2F)oc2cc3c(cc12)C(=O)CCCN3S(C)(=O)=O` [Compound B49], under setting [2], the EC50 lay in the range of 100 to 1000 nM.

With `CNC(=O)c1c(-c2ccc(F)cc2)oc2cc3c(cc12)[C@H](C)O[C@H](CS(C)(=O)=O)CN3S(C)(=O)=O` [Compound B215], the EC50 runs as follows: under setting [1], 10 to 100 nM; under setting [3], 10 to 100 nM. Turning to `CNC(=O)c1c(-c2ccc(F)cc2)oc2cc3c(cc12)CC(C)CCN3S(C)(=O)=O` (stereo not shown) [Compound B92], the EC50 is at most 10 nM under setting [1] and below 10 nM under setting [2]. The like results for `CNC(=O)c1c(-c2ccc(Oc3ccc(F)cc3)cc2)oc2cc3c(cc12)C(C)n1nncc1CN3S(C)(=O)=O` (stereo not shown) [Compound B158] were, in that order, at most 10 nM and below 10 nM.

In the case of `CNC(=O)c1c(-c2ccc(F)cc2)oc2cc3c(cc12)C(C)OC(C(=O)NC)CN3S(C)(=O)=O` (stereo not shown) [Compound B229], the EC50 runs as follows: under setting [1], 10 to 100 nM; under setting [2], 10 to 100 nM.

Consider `CNC(=O)c1c(-c2ccc(Oc3ccc(F)cc3)cc2)oc2cc3c(cc12)C(C)OC(CO)CN3S(C)(=O)=O` (stereo not shown) [Compound B191], for which the EC50 under setting [3] was below 10 nM. As for `CNC(=O)c1c(-c2ccc(F)cc2)oc2cc3c(cc12)[C@H](C)O[C@@H](CCS(C)(=O)=O)CN3S(C)(=O)=O` [Compound B234], the EC50 under setting [1] fell in the range of 10 to 100 nM and the EC50 under setting [2] lay within 10 to 100 nM. `CNC(=O)c1c(-c2ccc(Oc3ccc(F)cc3)cc2)oc2cc3c(cc12)C(C)OC(C)CN3S(C)(=O)=O` (stereo not shown) [Compound B168]: the EC50 by setting is: under setting [1], at most 10 nM; under setting [2], below 10 nM. The like results for `CNC(=O)c1c(-c2ccc(F)cc2)oc2cc3c(cc12)[C@H](C)c1ccccc1CN3S(C)(=O)=O` (single isomer, unassigned) [Compound B203] were, in that order, 10 to 100 nM and 10 to 100 nM. Regarding `CNC(=O)c1c(-c2ccc(F)cc2)oc2cc3c(cc12)[C@@H](C)OC(C)(C)CN3S(C)(=O)=O` (single isomer, unassigned) [Compound B185], under setting [2], the EC50 is above 1000 nM. For `CNC(=O)c1c(-c2ccc(Oc3ccc(F)cc3)cc2)oc2cc3c(cc12)[C@H](C)O[C@H](COP(=O)(O)O)CN3S(C)(=O)=O` [Compound B240], the EC50 by setting is: under setting [1], at most 10 nM; under setting [2], below 10 nM.

For the molecule `CNC(=O)c1c(-c2ccc(F)cc2)oc2cc3c(cc12)[C@H](C)O[C@H](CCO)CN3S(C)(=O)=O` [Compound B230], the EC50 by setting is: under setting [1], 10 to 100 nM; under setting [2], 10 to 100 nM. Consider `CS(=O)(=O)N1CCCCCc2cc3c(-c4ncc[nH]4)c(-c4ccc(F)cc4)oc3cc21` [Compound B130], for which the EC50 under setting [1] was at most 10 nM and the EC50 under setting [2] was below 10 nM. The like results for `CNC(=O)c1c(-c2ccc(Oc3ccc(F)cc3)cc2)oc2cc3c(cc12)[C@H](C)O[C@H](COC(=O)CN(C)C)CN3S(C)(=O)=O` [Compound B239] were, in that order, at most 10 nM and below 10 nM. The like results for `CNC(=O)c1c(-c2ccc(F)cc2)oc2cc3c(cc12)C(C)OC1(CC1)CN3S(C)(=O)=O` (stereo not shown) [Compound B188] were, in that order, 10 to 100 nM and 10 to 100 nM. The like results for `CNC(=O)c1c(-c2ccc(Oc3ccc(F)cc3)cc2)oc2cc3c(cc12)C(C)N(C)C(=O)CN3S(C)(=O)=O` (stereo not shown) [Compound B174] were, in that order, 10 to 100 nM and 10 to 100 nM. Take `CNC(=O)c1c(-c2ccc(F)cc2)oc2cc3c(cc12)C(C)N(CC(F)F)CCN3S(C)(=O)=O` (stereo not shown) [Compound B139]: the EC50 reads like this: under setting [1], at most 10 nM; under setting [2], below 10 nM. On to `CNC(=O)c1c(-c2ccc(Oc3ccc(F)c(F)c3)cc2)nn2cc3c(cc12)C(C)CCCN3S(C)(=O)=O` (stereo not shown) [B97 (3)], for which the EC50 (Hepatitis C virus, Huh-7, read-out: Inhibition of HCV genotype 1b replicon, class symbol, HCV genotype 1b replicon) lay within 10 to 100 nM. Consider `CNC(=O)c1c(-c2ccc(F)cc2)oc2cc3c(cc12)C(C)N(CC(=O)O)CCN3S(C)(=O)=O` (stereo not shown) [Compound B149], for which the EC50 under setting [2] is above 1000 nM. On to `CNC(=O)c1c(-c2ccc(Oc3ccc(F)cc3)cc2)oc2cc3c(cc12)C(C)=CCCN3S(C)(=O)=O` [Compound B48], for which the EC50 under setting [1] was in the range of 10 to 100 nM and the EC50 under setting [2] was in the range of 10 to 100 nM. `CNC(=O)c1c(-c2ccc(F)cc2)oc2cc3c(cc12)C(C)OC(CNS(C)(=O)=O)CN3S(C)(=O)=O` (stereo not shown) [Compound B220]: the EC50 is, setting by setting: under setting [1], 10 to 100 nM; under setting [2], 10 to 100 nM.

In the case of `CNC(=O)c1c(-c2ccc(Oc3ccc(F)cc3)cc2)oc2cc3c(cc12)[C@H](C)O[C@@H](CO)CN3S(C)(=O)=O` [Compound B241], the EC50 under setting [1] was 10 to 100 nM and the EC50 under setting [2] lay within 10 to 100 nM. Regarding `CNC(=O)c1c(-c2ccc(F)cc2)nn2cc3c(cc12)[C@@H](C)CCCN3S(C)(=O)=O` (single isomer, unassigned) [Compound B51], the EC50 under setting [2] is above 1000 nM.

Consider `CNC(=O)c1c(-c2ccc(F)cc2)oc2cc3c(cc12)C(C)CCCCN3S(C)(=O)=O` (stereo not shown) [Compound B94], for which the EC50 is, setting by setting: under setting [1], at most 10 nM; under setting [2], below 10 nM.

Regarding `C=C1CCCN(S(C)(=O)=O)c2cc3oc(-c4ccc(Oc5ccc(F)cc5)cc4)c(C(=O)NC)c3cc21` [Compound B46], under setting [2], the EC50 was in the range of 100 to 1000 nM. On the same count and under the same terms, then `CNC(=O)c1c(-c2ccc(F)cc2)nn2cc3c(cc12)[C@H](C)CCCN3S(C)(=O)=O` (single isomer, unassigned) [Compound B52], with 100 to 1000 nM; and `CNC(=O)c1c(-c2ccc(Br)cc2)nn2cc3c(cc12)C(C)CCCN3S(C)(=O)=O` (stereo not shown) [Compound B89], with 10 to 100 nM. With `CNC(=O)c1c(-c2ccc(F)cc2)oc2cc3c(cc12)C(C)OC(C)(C)CN3S(C)(=O)=O` (stereo not shown) [Compound B183], the EC50 runs as follows: under setting [1], 10 to 100 nM; under setting [2], 10 to 100 nM. Turning to `CNC(=O)c1c(-c2ccc(Oc3ccc(F)cc3)cc2)oc2cc3c(cc12)[C@@H](C)OC(C)(C)CN3S(C)(=O)=O` (single isomer, unassigned) [Compound B177], the EC50 under setting [2] was in the range of 100 to 1000 nM.

In the case of `CNC(=O)c1c(-c2ccc(F)cc2OC)oc2cc3c(cc12)C(C)CCCN3S(C)(=O)=O` (stereo not shown) [Compound B84], the EC50 runs as follows: under setting [1], 10 to 100 nM; under setting [2], 10 to 100 nM.

Consider `CS(=O)(=O)N1CCCCc2cc3c(-c4ncn[nH]4)c(-c4ccc(F)cc4)oc3cc21` [Compound B58], for which the EC50 under setting [2] was 100 to 1000 nM.

Values taken from patent publication US20130302282A1, “Inhibitors of Hepatitis C Virus” (priority 2010, published 2013).
